# Results: patent publication US20100041089A1, “IMPROVED METHOD FOR DETECTING CHEMICAL […]” (priority 2006, published 2010)
# Test system: yeast genes (expressed mRNA)
# Assay: DNA chip measurement of expressed mRNA of yeast genes after culture with a toxic chemical substance
# Type: cell-based, Saccharomyces cerevisiae S288C
# Procedure: Yeast (Saccharomyces cerevisiae S288C (a SUC2mal mel gap2 CUP1)) were cultured at 25° C. on YPD medium (yeast extract 1%, polypeptone 2%, glucose 2%). One of toxic chemical substances was added to the cell at logarithmic growth phase, and the cell was further cultured for two hours. Cell was cultured without any chemical substance in the same condition, and was used as a control. Concentrations of the chemical substances were defined to inhibit the growth of the yeast but not lead to death.
# After the completion of cultivation, the culture was centrifuged to collect the cells. To the cells, sodium acetate buffer (50 mM sodium acetate, 10 mM EDTA, 1% SDS) was added, and the mixture was shaken at 65° C. for five minutes, followed by returning to room temperature, and obtaining the supernatant, which procedure was repeated two times. To the supernatant, ½ amount of a solution of phenol/chloroform (1:1) was added, and the mixture was centrifuged to give a supernatant, an equal amount of chloroform was added, and the mixture was centrifuged to give a supernatant. To the supernatant, an equal amount of isopropanol containing 0.3 M sodium acetate was added, and the mixture was allowed to stand at room temperature for 30 minutes, after which the mixture was centrifuged to give sediment of the whole RNAs. Seventy % ethanol was added to the sediment, and the mixture was again centrifuged to give sediment, which was then dried and dissolved in water. mRNA was isolated from the whole RNAs as followings. In view of the fact that a poly A chain is attached to the 3′ terminus of mRNA, a polynucleotide having a poly T structure which was immobilized on the surface of latex beads was used to trap the mRNA, and then the mRNA was washed and eluted with spine column (Oligotex-dT30<Super>mRNA Purification Kit, Takara). Reverse transcription of the mRNA was conducted with a reverse transcriptase (Super Script II Reverse Transcriptase; catalogue No. 18064-014, GibcoBRL) using fluorescence-labeled nucleotides to give cDNAs that were introduced with Cy3-dUTP or Cy5-dUTP during the reverse transcription.
# The labeled cDNAs were dissolved in TE buffer (10 mM Tris-HCl/1 mM EDTA, pH 8.0), and the solution was dropped on the DNA chip containing the whole genes of yeast (DNA Chip Research Inc. Japan) so that the cDNAs were hybridized on the DNA chip at 65° C. for over 12 hours. The fluoresces intensity of the DNA chip was read with a scanner, and the ratio relative to the fluorescence intensity resulting from the absence of chemical substance was estimated as the following, which is shown in Tables 1 to 9.
# In the Tables, “Intensity” indicated in the rightmost column is a value of the level of expressed mRNA of each gene in control cells as divided by the average level of the expressions of the whole genes. A gene of which mRNA level is lower in control, and is higher in cases of addition of chemical substance, is especially useful in the detection of toxic substances.
# Here, when a ratio of an amount of mRNA expressed in the presence of the chemical substance to an amount of mRNA expressed in the absence of the chemical substance is two or more, then it is considered significant.
structure (smiles),measurement,setting,value
"N#Cc1c(Cl)c(Cl)c(Cl)c(C#N)c1Cl [(9), 2,4,5,6-Tetrachloro-1,3-benzenedicarbonitrile]",The level of expressed mRNA in the presence of chemical substance/The level of expressed mRNA in the absence of chemical substance,"yeast gene YMR316W, cultured two hours with substance",2.1
same,The level of expressed mRNA in the presence of chemical substance/The level of expressed mRNA in the absence of chemical substance,"yeast gene YMR322C, cultured two hours with substance",21.3
same,The level of expressed mRNA in the presence of chemical substance/The level of expressed mRNA in the absence of chemical substance,"yeast gene YNL044W, cultured two hours with substance",0.8
same,The level of expressed mRNA in the presence of chemical substance/The level of expressed mRNA in the absence of chemical substance,"yeast gene YNL074C, cultured two hours with substance",1.5
same,The level of expressed mRNA in the presence of chemical substance/The level of expressed mRNA in the absence of chemical substance,"yeast gene YNL092W, cultured two hours with substance",2.3
same,The level of expressed mRNA in the presence of chemical substance/The level of expressed mRNA in the absence of chemical substance,"yeast gene YNL115C, cultured two hours with substance",2.6
same,The level of expressed mRNA in the presence of chemical substance/The level of expressed mRNA in the absence of chemical substance,"yeast gene YNL117W, cultured two hours with the chemical substance",12.8
same,The level of expressed mRNA in the presence of chemical substance/The level of expressed mRNA in the absence of chemical substance,"yeast gene YNL156C, cultured two hours with substance",2.4
same,The level of expressed mRNA in the presence of chemical substance/The level of expressed mRNA in the absence of chemical substance,"yeast gene YNL190W, cultured two hours with substance",1.1
same,The level of expressed mRNA in the presence of chemical substance/The level of expressed mRNA in the absence of chemical substance,"yeast gene YNL208W, cultured two hours with substance",2.3
same,The level of expressed mRNA in the presence of chemical substance/The level of expressed mRNA in the absence of chemical substance,"yeast gene YNL234W, cultured two hours with substance",2.6
same,The level of expressed mRNA in the presence of chemical substance/The level of expressed mRNA in the absence of chemical substance,"yeast gene YNL281W, cultured two hours with substance",2.8
same,The level of expressed mRNA in the presence of chemical substance/The level of expressed mRNA in the absence of chemical substance,"yeast gene YNL305C, cultured two hours with substance",2.9
same,The level of expressed mRNA in the presence of chemical substance/The level of expressed mRNA in the absence of chemical substance,yeast gene YNL331C,42.6
same,The level of expressed mRNA in the presence of chemical substance/The level of expressed mRNA in the absence of chemical substance,"yeast gene YNL331C, cultured for two hours with substance",42.6
same,The level of expressed mRNA in the presence of chemical substance/The level of expressed mRNA in the absence of chemical substance,"yeast gene YNR068C, cultured two hours with substance",6.7
same,The level of expressed mRNA in the presence of chemical substance/The level of expressed mRNA in the absence of chemical substance,"yeast gene YOL030W, cultured two hours with the chemical substance",1.2
same,The level of expressed mRNA in the presence of chemical substance/The level of expressed mRNA in the absence of chemical substance,"yeast gene YOL032W, cultured two hours with substance",4.5
same,The level of expressed mRNA in the presence of chemical substance/The level of expressed mRNA in the absence of chemical substance,"yeast gene YOL036W, cultured two hours with substance",3.1
same,The level of expressed mRNA in the presence of chemical substance/The level of expressed mRNA in the absence of chemical substance,"yeast gene YOL047C, cultured two hours with substance",0.6
same,The level of expressed mRNA in the presence of chemical substance/The level of expressed mRNA in the absence of chemical substance,"yeast gene YOL071W, cultured two hours with substance",4.4
same,The level of expressed mRNA in the presence of chemical substance/The level of expressed mRNA in the absence of chemical substance,"yeast gene YOL082W, cultured two hours with substance",3.4
same,The level of expressed mRNA in the presence of chemical substance/The level of expressed mRNA in the absence of chemical substance,"yeast gene YOL083W, cultured two hours with substance",2.7
same,The level of expressed mRNA in the presence of chemical substance/The level of expressed mRNA in the absence of chemical substance,"yeast gene YOL117W, cultured two hours with substance",1.3
same,The level of expressed mRNA in the presence of chemical substance/The level of expressed mRNA in the absence of chemical substance,"yeast gene YOL131W, cultured two hours with substance",8.4
same,The level of expressed mRNA in the presence of chemical substance/The level of expressed mRNA in the absence of chemical substance,"yeast gene YOL150C, cultured two hours with substance",10.8
same,The level of expressed mRNA in the presence of chemical substance/The level of expressed mRNA in the absence of chemical substance,"yeast gene YOL162W, cultured two hours with substance",12.0
same,The level of expressed mRNA in the presence of chemical substance/The level of expressed mRNA in the absence of chemical substance,yeast gene YOL165C,46.9
same,The level of expressed mRNA in the presence of chemical substance/The level of expressed mRNA in the absence of chemical substance,"yeast gene YOL165C, cultured for two hours with substance",46.9
same,The level of expressed mRNA in the presence of chemical substance/The level of expressed mRNA in the absence of chemical substance,"yeast gene YOR019W, cultured two hours with substance",3.5
same,The level of expressed mRNA in the presence of chemical substance/The level of expressed mRNA in the absence of chemical substance,"yeast gene YOR197W, cultured two hours with substance",0.8
same,The level of expressed mRNA in the presence of chemical substance/The level of expressed mRNA in the absence of chemical substance,"yeast gene YOR215C, cultured two hours with substance",2.1
same,The level of expressed mRNA in the presence of chemical substance/The level of expressed mRNA in the absence of chemical substance,"yeast gene YOR228C, cultured two hours with substance",1.4
same,The level of expressed mRNA in the presence of chemical substance/The level of expressed mRNA in the absence of chemical substance,"yeast gene YOR248W, cultured two hours with substance",0.1
same,The level of expressed mRNA in the presence of chemical substance/The level of expressed mRNA in the absence of chemical substance,"yeast gene YOR382W, cultured two hours with substance",1.1
same,The level of expressed mRNA in the presence of chemical substance/The level of expressed mRNA in the absence of chemical substance,"yeast gene YOR391C, cultured two hours with substance",18.8
same,The level of expressed mRNA in the presence of chemical substance/The level of expressed mRNA in the absence of chemical substance,"yeast gene YPL052W, cultured two hours with substance",2.0
same,The level of expressed mRNA in the presence of chemical substance/The level of expressed mRNA in the absence of chemical substance,"yeast gene YPL087W, cultured two hours with substance",1.0
same,The level of expressed mRNA in the presence of chemical substance/The level of expressed mRNA in the absence of chemical substance,"yeast gene YPL194W, DNA repair protein genes, cultured two hours with substance",9.6
same,The level of expressed mRNA in the presence of chemical substance/The level of expressed mRNA in the absence of chemical substance,"yeast gene YPL196W, cultured two hours with substance",10.9
same,The level of expressed mRNA in the presence of chemical substance/The level of expressed mRNA in the absence of chemical substance,"yeast gene YPL206C, cultured two hours with substance",1.7
same,The level of expressed mRNA in the presence of chemical substance/The level of expressed mRNA in the absence of chemical substance,"yeast gene YPL222W, cultured two hours with substance",7.4
same,The level of expressed mRNA in the presence of chemical substance/The level of expressed mRNA in the absence of chemical substance,yeast gene YPL223C (stress protein genes),29.4
same,The level of expressed mRNA in the presence of chemical substance/The level of expressed mRNA in the absence of chemical substance,"yeast gene YPL272C, cultured two hours with the chemical substance",1.2
same,The level of expressed mRNA in the presence of chemical substance/The level of expressed mRNA in the absence of chemical substance,"yeast gene YPL280W, cultured two hours with substance",49.8
same,The level of expressed mRNA in the presence of chemical substance/The level of expressed mRNA in the absence of chemical substance,"yeast gene YPR023C, cultured two hours with substance",4.4
same,The level of expressed mRNA in the presence of chemical substance/The level of expressed mRNA in the absence of chemical substance,"yeast gene YPR079W, cultured two hours with substance",1.7
same,The level of expressed mRNA in the presence of chemical substance/The level of expressed mRNA in the absence of chemical substance,"yeast gene YPR150W, cultured two hours with the chemical substance",1.2
same,The level of expressed mRNA in the presence of chemical substance/The level of expressed mRNA in the absence of chemical substance,"yeast gene YPR151C, cultured two hours with substance",3.0
same,The level of expressed mRNA in the presence of chemical substance/The level of expressed mRNA in the absence of chemical substance,yeast gene YPR167C,76.6
